Among the data in patent US20220104493A1, “HERBICIDAL COMPOUNDS” (SYNGENTA CROP PROTECTION AG, priority 2019, published 2022) are pest or weed control values, retold here.

Holding throughout (assay): Post-emergence efficacy, Method A
Type in all cases: in vivo

The test system of assay [1] is Ipomoea hederacea (IPOHE). Conditions: 500 g/Ha, 100=total damage to plant, 0=no damage, evaluated after 7 and 14 days, read-out: Control of weed species after post-emergence application, IPOHE.
Assay [2] relates to Euphorbia heterophylla (EPHHL). Conditions: 500 g/Ha, 100=total damage to plant, 0=no damage, evaluated after 7 and 14 days, read-out: Control of weed species after post-emergence application, EPHHL.
Assay [3] has as its system Chenopodium album (CHEAL). The conditions noted are these: 500 g/Ha, 100=total damage to plant, 0=no damage, evaluated after 7 and 14 days, read-out: Control of weed species after post-emergence application, CHEAL.
Assay [4] relates to Amaranthus palmeri (AMAPA). The conditions noted are these: 500 g/Ha, 100=total damage to plant, 0=no damage, evaluated after 7 and 14 days, read-out: Control of weed species after post-emergence application, AMAPA.
In the next assay the test system is Lolium perenne (LOLPE). Conditions: 500 g/Ha, 100=total damage to plant, 0=no damage, evaluated after 7 and 14 days, read-out: Control of weed species after post-emergence application, LOLPE.
Assay [5] concerns Digitaria sanguinalis (DIGSA). Conditions: 500 g/Ha, 100=total damage to plant, 0=no damage, evaluated after 7 and 14 days, read-out: Control of weed species after post-emergence application, DIGSA.
For another assay, the system named is Eleusine indica (ELEIN). Conditions: 500 g/Ha, 100=total damage to plant, 0=no damage, evaluated after 7 and 14 days, read-out: Control of weed species after post-emergence application, ELEIN.
The test system of assay [6] is Echinochloa crus-galli (ECHCG). Conditions: 500 g/Ha, 100=total damage to plant, 0=no damage, evaluated after 7 and 14 days, read-out: Control of weed species after post-emergence application, ECHCG.
Another assay relates to Setaria faberi (SETFA). Conditions: 500 g/Ha, 100=total damage to plant, 0=no damage, evaluated after 7 and 14 days, read-out: Control of weed species after post-emergence application, SETFA.

As for `COC(=O)C[n+]1ccc(-c2nnco2)cc1` [Compound A16], the pest or weed control at 500 g/ha in [1] was found to be 20%; in [2] it was 20%; in assay [3] it was 0%; in [4], 0%; in the assay on Lolium perenne (LOLPE) it was 0%; in assay [5], 40%. Besides, the results for the pest or weed control at 500 g/ha (in the assay with Eleusine indica (ELEIN); in assay [6]; with Setaria faberi (SETFA)) were 10%, 20% and 30%, respectively.
As to `Nc1nsc(-c2cc[n+](CCC(=O)O)cc2)n1` [Compound A92], the pest or weed control at 500 g/ha in assay [1] turned out to be 20%; in [2], 80%; in [3], 60%; in assay [4] it was 100%; in the assay with Lolium perenne (LOLPE), 10%; in assay [5], 80%. In addition, the pest or weed control at 500 g/ha in the assay with Eleusine indica (ELEIN) was 20%; in assay [6] it was 60%; in the assay with Setaria faberi (SETFA) it was 60%.
Take `Cc1nnc(-c2cc[n+](CCCS(=O)(=O)[O-])cc2)o1` [Compound A36]: the pest or weed control at 500 g/ha was found to be 30% in assay [1]; 60% in assay [2]; 60% in [3]; 70% in assay [4]; 0% in the assay with Lolium perenne (LOLPE); 30% in assay [5]. Besides, the pest or weed control at 500 g/ha (with Eleusine indica (ELEIN); in assay [6]; with Setaria faberi (SETFA)) was 10% in each case.
In the case of `Cn1nnnc1-c1cc[n+](CC(=O)O)cc1` [Compound A33], the pest or weed control at 500 g/ha in assay [1] came to 0%; in assay [2], 40%; in [3], 40%; in assay [4], 90%; in the assay with Lolium perenne (LOLPE), 0%; in assay [5], 20%. The pest or weed control at 500 g/ha came to 20% in the assay with Eleusine indica (ELEIN), 0% in assay [6] and 0% with Setaria faberi (SETFA).
With `O=C(O)CC[n+]1ccc(-c2nc(C(F)(F)F)ns2)c(Br)c1` [Compound A79, 3-[3-bromo-4-[3-(trifluoromethyl)-1,2,4-thiadiazol-5-yl]pyridin-1-ium-1-yl]propanoic acid acetate], the pest or weed control at 500 g/ha was found to be 40% in assay [1]; 60% in [2]; 40% in assay [3]; 90% in assay [4]; 30% in the assay with Lolium perenne (LOLPE); 80% in assay [5]. Moreover, the pest or weed control at 500 g/ha in the assay with Eleusine indica (ELEIN) turned out to be 90%; in assay [6], 80%; with Setaria faberi (SETFA) it was 70%.
For `O=C(O)C[n+]1ccc(-c2ncno2)cc1` [Compound A13], the pest or weed control at 500 g/ha in [1] came to 30%; in [2] it was 70%; in [3] it was 50%; in [4] it was 100%; in the assay on Lolium perenne (LOLPE), 10%; in assay [5], 60%. Further, the results for the pest or weed control at 500 g/ha (in the assay on Eleusine indica (ELEIN); in assay [6]; with Setaria faberi (SETFA)) were 50%, 50% and 70%, respectively.
For the molecule `O=C(O)CC[n+]1ccc(-c2nccs2)cc1` [Compound A25], the pest or weed control at 500 g/ha in [1] was determined as 10%; in [2] it was 0%; in assay [3], 10%; in assay [4], 0%; with Lolium perenne (LOLPE), 0%; in [5] it was 10%. Further, the pest or weed control at 500 g/ha in the assay on Eleusine indica (ELEIN) worked out at 10%; in [6] it was 0%; with Setaria faberi (SETFA) it was 0%.
With `O=C(O)CC[n+]1ccc(-c2ncns2)cc1` [Compound A7, 3-[4-(1,2,4-thiadiazol-5-yl)pyridin-1-ium-1-yl]propanoic acid chloride], the pest or weed control at 500 g/ha in assay [1] is 30%; in [2] it was 80%; in assay [3], 90%; in assay [4], 100%; with Lolium perenne (LOLPE) it was 30%; in [5], 90%. For the same molecule, the pest or weed control at 500 g/ha in the assay with Eleusine indica (ELEIN) amounted to 70%; in assay [6] it was 50%; in the assay on Setaria faberi (SETFA), 70%.
As for `O=S(=O)([O-])CCC[n+]1ccc(-c2nnco2)cc1` [Compound A17], the pest or weed control at 500 g/ha is 20% in assay [1]; 50% in [2]; 70% in [3]; 70% in assay [4]; 0% in the assay with Lolium perenne (LOLPE); 40% in [5]. Also, the pest or weed control at 500 g/ha in the assay on Eleusine indica (ELEIN) is 10%; in assay [6], 30%; in the assay with Setaria faberi (SETFA), 40%.
Take `Cn1nnnc1-c1cc[n+](CCS(=O)(=O)[O-])cc1` [Compound A26]: the pest or weed control at 500 g/ha in assay [1] stood at 10%; in [2], 20%; in assay [3], 10%; in assay [4], 0%; with Lolium perenne (LOLPE), 10%; in assay [5], 20%. The pest or weed control at 500 g/ha (with Eleusine indica (ELEIN); in assay [6]; in the assay on Setaria faberi (SETFA)) was 10% in each case.
On to `O=S(=O)([O-])CC[n+]1ccc(-c2ncns2)cc1` [Compound A5, 2-[4-(1,2,4-thiadiazol-5-yl)pyridin-1-ium-1-yl]ethanesulfonate], for which the pest or weed control at 500 g/ha in [1] came out at 70%; in assay [2], 100%; in [3], 90%; in assay [4] it was 100%; with Lolium perenne (LOLPE), 70%; in assay [5], 70%. Further, the pest or weed control at 500 g/ha in the assay with Eleusine indica (ELEIN) was 80%; in [6], 40%; in the assay on Setaria faberi (SETFA) it was 60%.
Turning to `O=S(=O)([O-])C[n+]1ccc(-c2nccs2)cc1` [Compound A84], the pest or weed control at 500 g/ha in assay [1] is 10%; in [2], 50%; in assay [3], 60%; in assay [4], 70%; with Lolium perenne (LOLPE), 10%; in [5], 10%. The pest or weed control at 500 g/ha with Eleusine indica (ELEIN) is 50%; in [6], 30%; with Setaria faberi (SETFA), 10%.
On to `N#Cc1csc(-c2cc[n+](CCC(=O)O)cc2)n1` [Compound A88], for which the pest or weed control at 500 g/ha in assay [1] was 0%; in [2], 90%; in [3], 20%; in assay [4], 10%; in the assay on Lolium perenne (LOLPE), 0%; in assay [5], 0%. Besides, the pest or weed control at 500 g/ha (in the assay on Eleusine indica (ELEIN); in assay [6]; in the assay with Setaria faberi (SETFA)) was 0% throughout.
With `Cn1nnc(-c2cc[n+](CC(=O)O)cc2)n1` [Compound A34], the pest or weed control at 500 g/ha in assay [1] amounted to 0%; in assay [2] it was 0%; in assay [3], 0%; in assay [4], 70%; with Lolium perenne (LOLPE) it was 0%; in [5] it was 0%. Besides, the pest or weed control at 500 g/ha (in the assay with Eleusine indica (ELEIN); in [6]; with Setaria faberi (SETFA)) was 0% in each case.
Regarding `O=C(O)C[n+]1ccc(-c2ncsn2)cc1` [Compound A83], the pest or weed control at 500 g/ha stood at 10% in assay [1]; 50% in [2]; 30% in assay [3]; 20% in [4]; 10% in the assay with Lolium perenne (LOLPE); 20% in assay [5]. In addition, the results for the pest or weed control at 500 g/ha (in the assay on Eleusine indica (ELEIN); in [6]; with Setaria faberi (SETFA)) were 10%, 0% and 10%, respectively.
In the case of `O=C(O)C[n+]1ccc(-c2ccsn2)cc1` [Compound A81], the pest or weed control at 500 g/ha was found to be 0% in assay [1]; 20% in assay [2]; 40% in assay [3]; 70% in assay [4]; 0% in the assay with Lolium perenne (LOLPE); 10% in [5]. Moreover, the pest or weed control at 500 g/ha in the assay on Eleusine indica (ELEIN) was 40%; in [6] it was 10%; in the assay with Setaria faberi (SETFA) it was 10%.
